Our source for the inhibition values is patent publication US20100137315A1, “Sphingosine Kinase Inhibitors and Methods of Their Use” (APOGEE BIOTECHNOLOGY CORPORATION, priority 2005, published 2010).

Molecules are shown by their SMILES.

As a reminder, the inhibition is the change of the read-out against control, counted positive when it falls.

T1 sequence (Q9NYA1 whole entry): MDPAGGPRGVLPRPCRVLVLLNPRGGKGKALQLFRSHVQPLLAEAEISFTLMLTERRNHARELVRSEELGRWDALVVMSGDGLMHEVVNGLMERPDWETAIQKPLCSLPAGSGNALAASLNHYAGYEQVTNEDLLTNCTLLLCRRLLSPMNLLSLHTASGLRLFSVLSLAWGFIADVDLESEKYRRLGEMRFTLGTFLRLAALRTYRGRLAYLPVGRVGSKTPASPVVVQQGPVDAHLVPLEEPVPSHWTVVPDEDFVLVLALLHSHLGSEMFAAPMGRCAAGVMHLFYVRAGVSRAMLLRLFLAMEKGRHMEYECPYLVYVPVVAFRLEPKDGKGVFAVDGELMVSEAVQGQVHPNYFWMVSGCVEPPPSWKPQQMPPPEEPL

This assay addresses T1, recombinant human SK (Homo sapiens, UniProt Q9NYA1).
T1 construct: glutathione-S-transferase (GST) (N); made in house; host or cells: bacteria (pGEX vector)
Kind of assay: Inhibition of recombinant human SK, LC/MS/MS assay. Type of assay: biochemical. Conditions: 6 μg/ml compound. As for the experimental part:
An assay for identifying inhibitors of recombinant human SK has been established (French et al., 2003, Cancer Res 63: 5962). cDNA for human SK was subcloned into a pGEX bacterial expression vector, which results in expression of the enzyme as a fusion protein with glutathione-S-transferase, and the fusion protein is then purified on a column of immobilized glutathione. SK activity is measured by incubation of the recombinant SK with [^3H]sphingosine and 1 mM ATP under defined conditions, followed by extraction of the assay mixture with chloroform:methanol under basic conditions. […] Radioactivity in aliquots of the aqueous phase is then quantified as a measure of [^3H]S1P formation. There is a low background level of partitioning of [^3H]sphingosine into the aqueous phase, and addition of the recombinant SK greatly increases the formation of [^3H]S1P.
In an alternate assay procedure, the recombinant human SK was incubated with unlabeled sphingosine and ATP as described above. After 30 minutes, the reactions were terminated by the addition of acetonitrile to directly extract the newly synthesized S1P. The amount of S1P in the samples is then quantified as follows. C17 base D-erythro-sphingosine and C17 S1P are used as internal standards for sphingosine and S1P, respectively. These seventeen-carbon fatty acid-linked sphingolipids are not naturally produced, making these analogs excellent standards. The lipids are then fractionation by High-Performance Liquid Chromatography using a C8-reverse phase column eluted with 1 mM methanolic ammonium formate/2 mM aqueous ammonium formate. A Finnigan LCQ Classic LC-MS/MS is used in the multiple reaction monitoring positive ionization mode to acquire ions at m/z of 300 (precursor ion)→282 (product ion) for sphingosine and 380→264 for S1P. Calibration curves are generated by plotting the peak area ratios of the synthetic standards for each sphingolipid, and used to determine the normalized amounts of sphingosine and S1P in the samples.
Each Compound of this invention was tested for its ability to inhibit recombinant SK using the LC/MS/MS assay described above. Typically, the Compounds were individually dissolved in dimethylsulfoxide and tested at a final concentration of 6 micrograms/ml.
For the compound `CCCC(=O)Oc1ccc(C=CC(=O)Nc2nc(-c3ccc(C)cc3)cs2)cc1OC` [Compound 19, Butyric acid 2-methoxy-4-[2-(4-p-tolyl-thiazol-2-ylcarbamoyl)-vinyl]-phenyl ester], the inhibition at 6 µg/mL is 36%.

Take `CCCC(=O)Oc1ccc(C=CC(=O)Nc2nc(-c3ccc(Br)cc3)cs2)cc1OC` [Compound 20, Butyric acid 4-{2-[4-(4-bromo-phenyl)-thiazol-2-ylcarbamoyl]-vinyl}-2-methoxy-phenyl ester]: the inhibition at 6 µg/mL came out at 6%.

Regarding `O=C(C=Cc1ccc2c(c1)OCO2)Nc1nc(-c2ccc(Cl)cc2)cs1` [Compound 21, 3-Benzo[1,3]dioxol-5-yl-N-[4-(4-chloro-phenyl)-thiazol-2-yl]-acrylamide], the inhibition at 6 µg/mL was found to be 26%.

Consider `O=C(Cc1ccc2c(c1)OCO2)Nc1nc(-c2ccc(Cl)cc2)cs1` [Compound 22, 2-Benzo[1,3]dioxol-5-yl-N-[4-(4-chloro-phenyl)-thiazol-2-yl]-acetamide], for which the inhibition at 6 µg/mL is 34%.

Regarding `COc1ccc(CCC(=O)Nc2nc(-c3ccc(Cl)cc3)cs2)cc1OC` [Compound 23, N-[4-(4-Chloro-phenyl)-thiazol-2-yl]-3-(3,4-dimethoxy-phenyl)-propionamide], the inhibition at 6 µg/mL was found to be 45%.

As to `CCCC(=O)Oc1ccc(C(=O)Nc2nc(-c3ccc(Cl)cc3)cs2)cc1OC` [Compound 24, Butyric acid 4-[4-(4-chloro-phenyl)-thiazol-2-ylcarbamoyl]-2-methoxy-phenyl ester], the inhibition at 6 µg/mL is 0%.

Take `CCCC(=O)Oc1ccc(C(=O)Nc2nc(-c3ccc(Cl)cc3)cs2)cc1OC(=O)CCC` [Compound 25, Butyric acid 2-butyryloxy-4-[4-(4-chloro-phenyl)-thiazol-2-ylcarbamoyl]-phenyl ester]: the inhibition at 6 µg/mL came to 0%.

Regarding `CCCC(=O)Oc1ccc(CCC(=O)Nc2nc(-c3ccc(Cl)cc3)cs2)cc1OC(=O)CCC` [Compound 26, Butyric acid 2-butyryloxy-4-{2-[4-(4-chloro-phenyl)-thiazol-2-ylcarbamoyl]-ethyl}-phenyl ester], the inhibition at 6 µg/mL was 0%.

Regarding `CCCC(=O)Oc1ccc(C=CC(=O)Nc2nc(-c3ccc(F)cc3)cs2)cc1OC` [Compound 28, Butyric acid 4-{2-[4-(4-fluoro-phenyl)-thiazol-2-ylcarbamoyl]-vinyl}-2-methoxy-phenyl ester], the inhibition at 6 µg/mL was found to be 87%.

Turning to `CCCC(=O)Oc1ccc(CC(=O)Nc2nc(-c3ccc(Cl)cc3)cs2)cc1N` [Compound 31, Butyric acid 2-amino-4-{[4-(4-chloro-phenyl)-thiazol-2-ylcarbamoyl]-methyl}-phenyl ester], the inhibition at 6 µg/mL came to 58%.

`O=C(NCc1cc(F)cc(F)c1)c1nc(-c2ccc(Cl)cc2)cs1` [Compound 36, 4-(4-Chloro-phenyl)-thiazole-2-carboxylic acid 3,5-difluoro-benzylamide]: the inhibition at 6 µg/mL came out at 14%.

On to `O=C(NCc1ccc(Cl)c(C(F)(F)F)c1)c1nc(-c2ccc(Cl)cc2)cs1` [Compound 37, 4-(4-Chloro-phenyl)-thiazole-2-carboxylic acid 4-chloro-3-trifluoromethyl-benzylamide], for which the inhibition at 6 µg/mL was 23%.

Take `O=C(NCc1ccc(F)cc1Cl)c1nc(-c2ccc(Cl)cc2)cs1` [Compound 38, 4-(4-Chloro-phenyl)-thiazole-2-carboxylic acid 2-chloro-4-fluoro-benzylamide]: the inhibition at 6 µg/mL turned out to be 75%.

Regarding `O=C(NCc1ccc(F)c(Cl)c1)c1nc(-c2ccc(Cl)cc2)cs1` [Compound 39, 4-(4-Chloro-phenyl)-thiazole-2-carboxylic acid 3-chloro-4-fluoro-benzylamide], the inhibition at 6 µg/mL came out at 69%.

For the compound `O=C(NCc1ccc(F)c(F)c1)c1nc(-c2ccc(Cl)cc2)cs1` [Compound 40, 4-(4-Chloro-phenyl)-thiazole-2-carboxylic acid 3,4-difluoro-benzylamide], the inhibition at 6 µg/mL was 56%.

For the compound `COc1ccc(CCNC(=O)c2nc(-c3ccc(Cl)cc3)cs2)cc1Br` [Compound 41, 4-(4-Chloro-phenyl)-thiazole-2-carboxylic acid [2-(3-bromo-4-methoxy-phenyl)-ethyl]-amide], the inhibition at 6 µg/mL is 22%.

For `O=C(NCc1cc(F)c(F)c(F)c1)c1nc(-c2ccc(Cl)cc2)cs1` [Compound 42, 4-(4-Chloro-phenyl)-thiazole-2-carboxylic acid 3,4,5-trifluoro-benzylamide], the inhibition at 6 µg/mL came out at 79%.

For `O=C(NCc1cccc(OC(F)(F)F)c1)c1nc(-c2ccc(Cl)cc2)cs1` [Compound 43, 4-(4-Chloro-phenyl)-thiazole-2-carboxylic acid 3-trifluoromethoxy-benzylamide], the inhibition at 6 µg/mL was found to be 59%.

Regarding `O=C(NCCc1cccc(Oc2ccccc2)c1)c1nc(-c2ccc(Cl)cc2)cs1` [Compound 44, 4-(4-Chloro-phenyl)-thiazole-2-carboxylic acid [2-(3-phenoxy-phenyl)-ethyl]-amide], the inhibition at 6 µg/mL is 69%.

With `CN1CCCC1CCNC(=O)c1nc(-c2ccc(Cl)cc2)cs1` (stereo not shown) [Compound 45, 4-(4-Chloro-phenyl)-thiazole-2-carboxylic acid [2-(1-methyl-pyrrolidin-2-yl)-ethyl]-amide], the inhibition at 6 µg/mL came to 42%.

On to `CN1CCN(NC(=O)c2nc(-c3ccc(Cl)cc3)cs2)CC1` [Compound 46, 4-(4-Chloro-phenyl)-thiazole-2-carboxylic Acid (4-methyl-piperazin-1-yl)-amide], for which the inhibition at 6 µg/mL was determined as 80%.

With `O=C(CCc1ccc(F)cc1F)Nc1nc(-c2ccc(Cl)cc2)cs1` [Compound 47, N-[4-(4-Chloro-phenyl)-thiazol-2-yl]-3-(2,4-difluoro-phenyl)-propionamide], the inhibition at 6 µg/mL was 21%.

Regarding `CCSCCNC(=O)c1nc(-c2ccc(Cl)cc2)cs1` [Compound 48, 4-(4-Chloro-phenyl)-thiazole-2-carboxylic Acid (2-ethylsulfanyl-ethyl)-amide], the inhibition at 6 µg/mL turned out to be 56%.

Consider `O=C(NCc1ccc(C(F)(F)F)cc1F)c1nc(-c2ccc(Cl)cc2)cs1` [Compound 49, 4-(4-Chloro-phenyl)-thiazole-2-carboxylic Acid 2-fluoro-4-trifluoromethyl-benzylamide], for which the inhibition at 6 µg/mL was determined as 67%.

On to `O=C(Nc1cc(F)cc(F)c1)c1nc(-c2ccc(Cl)cc2)cs1` [Compound 50, 4-(4-Chloro-phenyl)-thiazole-2-carboxylic Acid (3,5-difluoro-phenyl)-amide], for which the inhibition at 6 µg/mL is 21%.

For the compound `CSc1ccc(CNC(=O)c2nc(-c3ccc(Cl)cc3)cs2)cc1` [Compound 51, 4-(4-Chloro-phenyl)-thiazole-2-carboxylic Acid 4-methylsulfanyl-benzylamide], the inhibition at 6 µg/mL worked out at 36%.

`O=C(NCc1ccc(OC(F)(F)F)cc1)c1nc(-c2ccc(Cl)cc2)cs1` [Compound 52, 4-(4-Chloro-phenyl)-thiazole-2-carboxylic Acid 4-trifluoromethoxy-benzylamide]: the inhibition at 6 µg/mL was 78%.

With `O=C(NCc1ccc(F)c(C(F)(F)F)c1)c1nc(-c2ccc(Cl)cc2)cs1` [Compound 53, 4-(4-Chloro-phenyl)-thiazole-2-carboxylic Acid 4-fluoro-3-trifluoromethyl-benzylamide], the inhibition at 6 µg/mL was 44%.

For `O=C(NCc1ccc(Oc2ccccc2)cc1)c1nc(-c2ccc(Cl)cc2)cs1` [Compound 54, 4-(4-Chloro-phenyl)-thiazole-2-carboxylic Acid 4-phenoxy-benzylamide], the inhibition at 6 µg/mL is 25%.

For the compound `O=C(NCc1ccc(-c2ccccc2)cc1)c1nc(-c2ccc(Cl)cc2)cs1` [Compound 55, 4-(4-Chloro-phenyl)-thiazole-2-carboxylic Acid (biphenyl-4-ylmethyl)-amide], the inhibition at 6 µg/mL came out at 20%.

Consider `CC(NC(=O)c1nc(-c2ccc(Cl)cc2)cs1)c1ccc(Cl)cc1` (stereo not shown) [Compound 56, 4-(4-Chloro-phenyl)-thiazole-2-carboxylic Acid [1-(4-chloro-phenyl)-ethyl]-amide], for which the inhibition at 6 µg/mL was 81%.

Consider `CC(C)(C)NCCCNC(=O)c1nc(-c2ccc(Cl)cc2)cs1` [Compound 57, 4-(4-Chloro-phenyl)-thiazole-2-carboxylic Acid (3-tert-butylamino-propyl)-amide], for which the inhibition at 6 µg/mL turned out to be 16%.

On to `O=C(NCc1ccc(C(F)(F)F)cc1)c1nc(-c2ccc(Cl)cc2)cs1` [Compound 58, 4-(4-Chloro-phenyl)-thiazole-2-carboxylic Acid 4-trifluoromethyl-benzylamide], for which the inhibition at 6 µg/mL came out at 86%.

On to `O=C(NCCCN1CCCC1)c1nc(-c2ccc(Cl)cc2)cs1` [Compound 59, 4-(4-Chloro-phenyl)-thiazole-2-carboxylic Acid (3-pyrrolidin-1-yl-propyl)-amide], for which the inhibition at 6 µg/mL was 46%.
